Format in all cases: cell-based
For test [1], the system named is primary human fibroblasts derived from IPF patients (LL29 cells). Kind of test: Inhibition of the fibrotic process in TGF-β1 treated IPF patient fibroblasts (αSMA staining). Particulars: Fibroblast, 96 h, LL29 cells treated with TGF-β1 (20 ng/mL), 4 days, read-out: Inhibition of fibrosis EC50. In a few lines: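 LL29 IPF lung fibroblasts in F12 with 1% FBS, compound (11-point, 10 μM to 1.87 nM, 0.1% DMSO) plus TGF-β1 20 ng/mL for 4 days at 37° C. αSMA-positive % of SYTOX-negative cells by immunofluorescence imaging, normalized to TGF-β1 wells; EC50 from non-linear regression of triplicates.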

Test [2] has as its system primary human mesenchymal stem cells (hMSCs). Kind of test: Chondrogenesis induction in primary human mesenchymal stem cells (chondrogenic nodules, Rhodamine B / Nile Red). The note with it: 6 days; for Max. Activity as % TGF-β3 activity: positive control TGF-β3 10 ng/mL, nodule number normalized to DMSO; for EC (100% of TGF-beta3 activity): Homo sapiens, Mesenchymal stem cells, 144 h, concentration required to induce chondrogenesis equivalent to TGF-β3 10 ng/mL, read-out: Conc (nM) of 100% TGF-β3 activity. On the procedure: The above synthesized compounds were screened using primary human mesenchymal stem cells (hMSCs) to determine their ability to induce chondrogenesis (process by which cartilage is developed).
Primary human mesenchymal stem cells (hMSCs) were purchased from Lonza (Walkersville, Md.) and expanded in Mesenchymal Stem Cell Growth Media (Lonza). Cells between passage 3 and 6 were used for the experiments.
Each compound was dissolved in DMSO as a 10 mM stock and used to prepare compound source plates. Serial dilution (1:3, 6-point dose-response curves from 2700 nM to 10 nM) and compound transfer was performed using the ECHO 550 (Labcyte, Sunnyvale, Calif.) into 96-well clear bottom assay plates (Greiner Bio-One) with appropriate DMSO backfill for a final DMSO concentration of 0.03%. hMSCs were plated at 20,000 cells/well in 250 μL/well Incomplete Chondrogenic Induction Medium (Lonza; DMEM, dexamethasone, ascorbate, insulin-transferrin-selenium [ITS supplement], gentamycin-amphotericin [GA-1000], sodium pyruvate, proline and L-glutamine). TGF-β3 (10 ng/mL) was used as a positive control for differentiation while negative control wells were treated with 75 nL DMSO for normalization and calculating EC50 values. Cells were incubated at 37° C. and 5% CO2 for 6 days. To image chondrogenic nodules, the cells were fixed using 4% formaldehyde (Electron Microscopy Sciences), and stained with 2 μg/mL Rhodamine B (Sigma-Aldrich) and 20 μM Nile Red (Sigma-Aldrich) [Johnson K., et. al, A Stem Cell-Based Approach to Cartilage Repair, Science, (2012), 336(6082). 717-721]. The nodules imaged (4 images per well at 4× magnification) by excitation at 531 nm and emission at 625 nm and quantified using the CellInsight CX5 (Thermo Scientific). Number of nodules in each well was normalized to the average of 3 DMSO treated wells on the same plate using Excel (Microsoft Inc.). The normalized averages (fold change over DMSO) of 3 replicate wells for each compound concentration were calculated. Due to solubility limitations of some of the compounds, curve fitting was incomplete leading to inaccurate EC50 determinations.
Using TGF-β3 as a positive control, the concentration of test compounds required to induce equivalent levels of chondrogenesis is reported. In addition, the maximum activity of each compound and the respective dose that each compound reached maximum chondrogenesis activity is reported.

The test system of test [3] is Wnt activity (SW480 colon carcinoma cells stably expressing the Sp5-Luc reporter gene). Description: Sp5-Luc reporter gene screening assay for Wnt activity. Particulars: Homo sapiens. A digest of the protocol: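 The SW480 cells carry a lentiviral luciferase reporter driven by a Sp5 promoter with eight TCF/LEF sites. They were plated at 10,000 cells/well in 10% FCS overnight, then pinned with 50 nl of 3-fold dilutions (10 mM top source concentration) into 50 μl.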
Background: A reporter such as luciferase makes a cellular process visible.

pEC50, pIC50: −log10 of the molar value.

As usually defined, the pEC50 is −log10 of the EC50, conventionally taken in molar units. For orientation: pIC50 means the IC50 on a negative log10 scale, so that one unit is a factor of ten. Low readings indicate a large IC50, high ones a small IC50. Take `CCC(=O)Nc1cncc(-c2cnc3[nH]nc(-c4nc5c(N6CCCCC6)ccnc5[nH]4)c3c2)c1` [Compound 133, N-(5-(3-(7-(Piperidin-1-yl)-3H-imidazo[4,5-b]pyridin-2-yl)-1H-pyrazolo[3,4-b]pyridin-5-yl)pyridin-3-yl)propionamide]: the pEC50 in test [1] is 6.07. Moreover, in test [2], the “Max. Activity as % TGF-β3 activity” value is on record as 300% and the EC (100% of TGF-beta3 activity) amounted to 317 nM. Also, the pIC50 in test [3] was 7.44.
Take `CCCC(=O)Nc1cncc(-c2cnc3[nH]nc(-c4nc5c(-c6ccsc6)ccnc5[nH]4)c3c2)c1` [Compound 249, N-(5-(3-(7-(Thiophen-3-yl)-3H-imidazo[4,5-b]pyridin-2-yl)-1H-pyrazolo[3,4-b]pyridin-5-yl)pyridin-3-yl)butyramide]: in test [1], the pEC50 is 7.46. In addition, the EC (100% of TGF-beta3 activity) in test [2] turned out to be 31.9 nM. Moreover, the pIC50 in test [3] was 8.57.
On to `O=C(Nc1cncc(-c2cnc3[nH]nc(-c4nc5c(-c6ccc(F)cc6)ccnc5[nH]4)c3c2)c1)C1CCC1` [Compound 38, N-(5-(3-(7-(4-Fluorophenyl)-3H-imidazo[4,5-b]pyridin-2-yl)-1H-pyrazolo[3,4-b]pyridin-5-yl)pyridin-3-yl)cyclobutanecarboxamide], for which, in test [1], the pEC50 is 6.93. For the same compound, the EC (100% of TGF-beta3 activity) in test [2] stood at 48.6 nM. In test [3], this compound showed a pIC50 of 7.94.
The corresponding values for `Cc1ccc(-c2ccnc3[nH]c(-c4n[nH]c5ncc(-c6cncc(N)c6)cc45)nc23)s1` [Compound 339, 5-(3-(7-(5-Methylthiophen-2-yl)-3H-imidazo[4,5-b]pyridin-2-yl)-1H-pyrazolo[3,4-b]pyridin-5-yl)pyridin-3-amine] are 7.40, 43.2 nM and 8.59.
As for `Cc1ncc(-c2cnc3[nH]nc(-c4nc5c(-c6cccc(F)c6)ccnc5[nH]4)c3c2)n1C` [Compound 913, 5-(1,2-Dimethyl-1H-imidazol-5-yl)-3-(7-(3-fluorophenyl)-3H-imidazo[4,5-b]pyridin-2-yl)-1H-pyrazolo[3,4-b]pyridine], the pEC50 in test [1] is 6.67. In test [2], the “Max. Activity as % TGF-β3 activity” value was determined as 300% and the EC (100% of TGF-beta3 activity) worked out at 117 nM. In test [3], this compound had a pIC50 of 7.18.
